In patent US20260007684A1, “AMIDE DERIVATIVES FOR INHIBITING NLRP3 AND USES THEREOF” (Ventus Therapeutics U.S., Inc., priority 2023, published 2026) one finds IC50 data, which are given here for 33 molecules.

By IC50 is commonly meant the concentration at which inhibition is half-maximal.

The target in experiment [1] is T1, human NLRP3 (Homo sapiens (Human), UniProt Q96P20). Put plainly: Scintillation Proximity (SPA) NLRP3 Assay: displacement of 3H-MCC950. It is filed as binding.
In experiment [2] the target is T1, human NLRP3. Nature of the experiment: Human PBMC NLRP3 Assay (LPS priming, ATP stimulation, cytokine measurement). It is filed as cell-based. The following applies: read-out: PBMC IC50.
Experiment [3] concerns the target T1, human NLRP3. Nature of the experiment: Human Whole Blood (hWB) NLRP3 Assay (LPS/ATP, IL-1β). It is filed as cell-based.
The mark [4] stands for this setting: displacement of 3H-MCC950, read-out: SPA IC50.
[5] abbreviates: human PBMC, LPS priming, ATP stimulation.
Setting [6] is: human whole blood, LPS/ATP, IL-1β, read-out: hWB IC50.
[7] abbreviates: hWB IC50, human whole blood, LPS/ATP, IL-1β.

T1 sequence (Q96P20 whole entry): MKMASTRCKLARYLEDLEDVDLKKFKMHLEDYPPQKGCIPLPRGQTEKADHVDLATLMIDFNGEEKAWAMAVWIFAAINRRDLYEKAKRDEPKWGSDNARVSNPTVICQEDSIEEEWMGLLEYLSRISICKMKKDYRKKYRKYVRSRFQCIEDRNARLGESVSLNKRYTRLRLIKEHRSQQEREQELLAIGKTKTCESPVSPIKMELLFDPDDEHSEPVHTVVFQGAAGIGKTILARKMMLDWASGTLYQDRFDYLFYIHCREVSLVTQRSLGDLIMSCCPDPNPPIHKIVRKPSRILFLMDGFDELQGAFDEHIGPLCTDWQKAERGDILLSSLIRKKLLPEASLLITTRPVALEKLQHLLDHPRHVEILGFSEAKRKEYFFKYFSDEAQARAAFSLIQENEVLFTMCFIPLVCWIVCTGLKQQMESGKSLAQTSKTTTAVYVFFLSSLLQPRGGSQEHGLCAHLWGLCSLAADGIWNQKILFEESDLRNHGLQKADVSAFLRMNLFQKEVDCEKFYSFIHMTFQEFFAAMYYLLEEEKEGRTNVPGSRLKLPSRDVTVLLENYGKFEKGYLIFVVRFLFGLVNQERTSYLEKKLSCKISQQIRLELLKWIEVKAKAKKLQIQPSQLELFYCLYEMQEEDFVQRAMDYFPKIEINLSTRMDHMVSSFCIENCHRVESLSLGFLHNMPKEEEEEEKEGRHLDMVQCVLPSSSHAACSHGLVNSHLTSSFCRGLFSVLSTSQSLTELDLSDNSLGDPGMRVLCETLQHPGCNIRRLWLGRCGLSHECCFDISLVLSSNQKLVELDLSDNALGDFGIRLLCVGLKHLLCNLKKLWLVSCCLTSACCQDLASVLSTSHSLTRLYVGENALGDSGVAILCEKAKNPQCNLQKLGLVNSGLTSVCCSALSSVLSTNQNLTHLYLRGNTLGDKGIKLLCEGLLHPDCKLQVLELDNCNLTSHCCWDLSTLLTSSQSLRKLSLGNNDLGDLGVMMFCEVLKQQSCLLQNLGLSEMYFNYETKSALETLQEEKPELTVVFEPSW

As for `O=C(NC1CC(C(F)(F)F)CCN(c2nnn[nH]2)C1)C1(c2ccc(Cl)cc2)CC1` (racemic) [Rac-1, 1-(4-chlorophenyl)-N-[1-(1H-1,2,3,4-tetrazol-5-yl)-5-(trifluoromethyl)azepan-3-yl]cyclopropane-1-carboxamide], the IC50 was less than 1000 nM on human NLRP3 [1] (setting [4]) and 100 to 500 nM at human NLRP3 [2] (setting [5]).
For `C[C@@H]1CCN(c2nnn[nH]2)C[C@H](NC(=O)C2(c3ccc(C4CC4)cc3)CC2)C1` (single isomer, unassigned) [2A*] the same measures were less than 1000 nM and 10 to 100 nM.
Turning to `C[C@@H]1CCN(c2nnn[nH]2)C[C@H](NC(=O)C2(c3ccc(OC(F)F)cc3F)CC2)C1` (single isomer, unassigned) [3A*], the IC50 at human NLRP3 [1] (setting [4]) is less than 1000 nM; at human NLRP3 [2] (setting [5]), 10 to 100 nM.
As for `C[C@@H]1CCN(c2nnn[nH]2)C[C@H](NC(=O)C2(c3ccc(Cl)c(F)c3F)CC2)C1` (single isomer, unassigned) [4A*, 1-(4-chloro-2,3-difluorophenyl)-N-(5-methyl-1-(1H-tetrazol-5-yl)azepan-3-yl)cyclopropane-1-carboxamide], the IC50 on human NLRP3 [1] (setting [4]) is less than 1000 nM; at human NLRP3 [2] (setting [5]) it was 10 to 100 nM.
For `C[C@@H]1CCN(c2nnn[nH]2)C[C@H](NC(=O)C2(c3ccc(C(F)F)cc3)CC2)C1` (single isomer, unassigned) [5A*, 1-(4-(difluoromethyl)phenyl)-N-(5-methyl-1-(1H-tetrazol-5-yl)azepan-3-yl)cyclopropane-1-carboxamide] the same measures were less than 1000 nM and 10 to 100 nM.
For `C[C@@H]1CCN(c2nnn[nH]2)C[C@H](NC(=O)C2(c3cc(F)c(C(F)(F)F)cc3F)CC2)C1` (single isomer, unassigned) [7A*, 1-(2,5-difluoro-4-(trifluoromethyl)phenyl)-N-(5-methyl-1-(1H-tetrazol-5-yl)azepan-3-yl)cyclopropane-1-carboxamide] the same measures were less than 1000 nM and 10 to 100 nM.
The corresponding values for `C[C@H]1CCN(c2nnn[nH]2)C[C@H](NC(=O)C2(c3ccc(Cl)c(F)c3O)CC2)C1` (single isomer, unassigned) [18C*, 1-(4-chloro-3-fluoro-2-hydroxyphenyl)-N-(5-methyl-1-(1H-tetrazol-5-yl)azepan-3-yl)cyclopropane-1-carboxamide] are 10000 to 50000 nM and 100 to 500 nM.
Take `C[C@H]1CCN(c2nnn[nH]2)C[C@@H](NC(=O)C2(c3ccc(Cl)c(F)c3O)CC2)C1` (single isomer, unassigned) [18D*, 1-(4-chloro-3-fluoro-2-hydroxyphenyl)-N-(5-methyl-1-(1H-tetrazol-5-yl)azepan-3-yl)cyclopropane-1-carboxamide]: the results for the IC50 at human NLRP3 [1] (setting [4]) and on human NLRP3 [2] (setting [5]) were less than 1000 nM and 100 to 500 nM, respectively.
For the molecule `C[C@@H]1CCN(c2nnn[nH]2)C[C@H](NC(=O)C2(c3ccc(C(F)F)cc3O)CC2)C1` (single isomer, unassigned) [30A*, 1-(4-(difluoromethyl)-2-hydroxyphenyl)-N-(5-methyl-1-(1H-tetrazol-5-yl)azepan-3-yl)cyclopropane-1-carboxamide], the IC50 on human NLRP3 [1] (setting [4]) was less than 1000 nM; on human NLRP3 [2] (setting [5]), less than 10 nM.
The corresponding values for `C[C@@H]1CCN(c2nnn[nH]2)C[C@@H](NC(=O)C2(c3ccc(C(F)F)cc3O)CC2)C1` (single isomer, unassigned) [30B*, 1-(4-(difluoromethyl)-2-hydroxyphenyl)-N-(5-methyl-1-(1H-tetrazol-5-yl)azepan-3-yl)cyclopropane-1-carboxamide] are less than 1000 nM and 10 to 100 nM.
On to `C[C@@H]1CCN(c2nnn[nH]2)C[C@@H](NC(=O)C2(c3ccc(C(F)(F)F)c(F)c3O)CC2)C1` (single isomer, unassigned) [31B*, 1-(3-fluoro-2-hydroxy-4-(trifluoromethyl)phenyl)-N-(5-methyl-1-(1H-tetrazol-5-yl)azepan-3-yl)cyclopropane-1-carboxamide], for which the IC50 is less than 1000 nM at human NLRP3 [1] (setting [4]) and 10 to 100 nM at human NLRP3 [2] (setting [5]).
`C[C@@H]1CCN(c2nnn[nH]2)C[C@H](NC(=O)C2(c3ccc(C4CC4)c(F)c3O)CC2)C1` (single isomer, unassigned) [32A*, 1-(4-cyclopropyl-3-fluoro-2-hydroxyphenyl)-N-(5-methyl-1-(1H-tetrazol-5-yl)azepan-3-yl)cyclopropane-1-carboxamide]: the 50% inhibitory concentration (IC50) on human NLRP3 [1] (setting [4]) was less than 1000 nM; at human NLRP3 [2] (setting [5]) it was less than 10 nM.
Turning to `C[C@H]1C[C@@H](NC(=O)C2(c3ccc(OC(F)F)cc3)CC2)[C@H]2CC[C@@H]1N2c1nnn[nH]1` (single isomer, unassigned) [35E*], the IC50 was 1000 to 10000 nM at human NLRP3 [1] (setting [4]) and greater than 3000 nM at human NLRP3 [3] (setting [6]).
As to `C[C@@H]1C[C@@H](NC(=O)C2(c3ccc(C4CC4(F)F)cc3)CC2)[C@H]2CC[C@@H]1N2c1nnn[nH]1` (single isomer, unassigned) [37A*], the half-inhibitory concentration (IC50) is less than 1000 nM at human NLRP3 [1] (setting [4]) and 1000 to 2000 nM against human NLRP3 [3] (setting [7]).
`CC1(C)C[C@@H](NC(=O)C2(c3ccc(Cl)cc3O)CC2)CN(c2nnn[nH]2)C1` (single isomer, unassigned) [42A*]: the IC50 on human NLRP3 [1] (setting [4]) is less than 1000 nM; on human NLRP3 [1] (read-out: SPA IC50) it was 47 nM; at human NLRP3 [2] (setting [5]), less than 10 nM; at human NLRP3 [2] it was 5.8 nM.
`C[C@@H]1CC(NC(=O)C2(c3ccc(OC(F)F)cc3O)CC2)[C@H]2CC[C@@H]1N2c1nnn[nH]1` (single isomer, unassigned) [43A*]: the IC50 on human NLRP3 [1] (setting [4]) and against human NLRP3 [3] (setting [7]) was less than 1000 nM throughout.
For the molecule `C[C@@H]1CCN(c2nnn[nH]2)C[C@H](NC(=O)C2(c3ccc(C(F)(F)F)c(OC(F)F)c3)CC2)C1` (single isomer, unassigned) [54A*], the IC50 at human NLRP3 [1] (setting [4]) was less than 1000 nM; on human NLRP3 [2] (setting [5]), 10 to 100 nM.
The corresponding values for `C[C@@H]1CCN(c2nnn[nH]2)C[C@H](NC(=O)C2(c3ccc(Cl)cc3Cl)CC2)C1` (single isomer, unassigned) [55A*] are less than 1000 nM and 10 to 100 nM.
For `C[C@@H]1CCN(c2nnn[nH]2)C[C@H](NC(=O)C2(c3ccc(Cl)c(F)c3)CC2)C1` (single isomer, unassigned) [65A*] the same measures were less than 1000 nM and 10 to 100 nM.
With `C[C@@H]1CCN(c2nnn[nH]2)C[C@H](NC(=O)C2(c3ccc(C(F)(F)F)cc3F)CC2)C1` (single isomer, unassigned) [68A*], the values for the half-maximal inhibitory concentration (IC50) at human NLRP3 [1] (setting [4]) and at human NLRP3 [2] (setting [5]) were less than 1000 nM and less than 10 nM, respectively.
With `C[C@@H]1CCN(c2nnn[nH]2)C[C@H](NC(=O)C2(c3ccc(SC(F)(F)F)cc3)CC2)C1` (single isomer, unassigned) [69A*], the IC50 was less than 1000 nM on human NLRP3 [1] (setting [4]) and 10 to 100 nM on human NLRP3 [2] (setting [5]).
Regarding `C[C@@H]1CCN(c2nnn[nH]2)C[C@H](NC(=O)C2(c3ccc(OC(F)F)cc3O)CC2)C1` (single isomer, unassigned) [70A*], the IC50 was less than 1000 nM on human NLRP3 [1] (setting [4]) and less than 10 nM on human NLRP3 [2] (setting [5]).
The corresponding values for `C[C@@H]1CCN(c2nnn[nH]2)C[C@@H](NC(=O)C2(c3ccc(OC(F)F)cc3O)CC2)C1` (single isomer, unassigned) [70B*] are less than 1000 nM and 10 to 100 nM.
The corresponding values for `C[C@H]1CCN(c2nnn[nH]2)C[C@@H](NC(=O)C2(c3ccc(OC(F)F)cc3O)CC2)C1` (single isomer, unassigned) [70D*] are less than 1000 nM and 10 to 100 nM.
For `Cc1ccc(C2(C(=O)N[C@@H]3C[C@H](C)CCN(c4nnn[nH]4)C3)CC2)cc1` (single isomer, unassigned) [71A*] the same measures were less than 1000 nM and 10 to 100 nM.
Take `C[C@@H]1CCN(c2nnn[nH]2)C[C@H](NC(=O)C2(c3ccc(OC(F)F)c(F)c3)CC2)C1` (single isomer, unassigned) [73A*]: the figures for the half-maximal inhibitory concentration (IC50) at human NLRP3 [1] (setting [4]) and on human NLRP3 [2] (setting [5]) were less than 1000 nM and 10 to 100 nM, respectively.
For `C[C@H]1CC[C@H](NC(=O)C2(c3ccc(Cl)cc3O)CC2)CN(c2nnn[nH]2)C1` (single isomer, unassigned) [90B*] the same measures were less than 1000 nM and 10 to 100 nM.
Take `COc1cc(F)c(C2(C(=O)N[C@@H]3C[C@@H](C)[C@@H]4CC[C@H]3N4c3nnn[nH]3)CC2)c(F)c1` (single isomer, unassigned) [102A*]: the IC50 on human NLRP3 [1] (setting [4]) and at human NLRP3 [3] (setting [7]) was less than 1000 nM throughout.
As to `O=C(N[C@@H]1C[C@@H](C(F)(F)F)[C@@H]2CC[C@H]1N2c1nnn[nH]1)C1(c2ccc(Cl)cc2)CC1` (single isomer, unassigned) [103A*], the 50% inhibitory concentration (IC50) on human NLRP3 [1] (SPA IC50, displacement of 3H-MCC950) was less than 1000 nM; against human NLRP3 [3] (setting [7]) it was less than 1000 nM.
On to `O=C(N[C@@H]1CCN(c2nnn[nH]2)C1)C1(c2ccc(Cl)cc2)CC1` (single isomer, unassigned) [Comparative Example A*, reference compound], for which the figures for the IC50 at human NLRP3 [1] (read-out: SPA IC50) and on human NLRP3 [3] (read-out: hWB IC50) were 420000 nM and greater than 50000 nM, respectively.
For `C[C@@H]1C[C@@H](NC(=O)C2(c3ccc(OC(F)F)cc3F)CC2)[C@H]2CC[C@@H]1N2c1nnn[nH]1` (stereo in doubt) [Compound 101A, 1-(4-(difluoromethoxy)-2-fluorophenyl)-N-(4-methyl-8-(1H-tetrazol-5-yl)-8-azabicyclo[3.2.1]octan-2-yl)cyclopropane-1-carboxamide], the half-inhibitory concentration (IC50) at human NLRP3 [1] (setting [4]) and against human NLRP3 [3] (setting [7]) was less than 1000 nM in each case.
Take `C[C@@H]1C[C@H](NC(=O)C2(c3ccc(OC(F)F)cc3O)CC2)[C@H]2CC[C@@H]1N2c1nnn[nH]1` [43B*, N-((1R,2S,4R,5S)-4-methy1-8-(1H-tetrazol-5-yl)-8-azabicyclo[3.2.1]octan-2-yl)-1-(4-(difluoromethoxy)-2-hydroxyphenyl)cyclopropane-1-carboxamide]: the values for the IC50 at human NLRP3 [1] (setting [4]) and on human NLRP3 [3] (setting [6]) were less than 1000 nM and greater than 3000 nM, respectively.
Turning to `C[C@H]1C[C@@H]2CC[C@H]([C@H](NC(=O)C3(c4ccc(C(F)(F)F)cc4)CC3)C1)N2c1nnn[nH]1` [104A*, N-((1R,2R,4R,6S)-4-methyl-9-(1H-tetrazol-5-yl)-9-azabicyclo[4.2.1]nonan-2-yl)-1-(4-(trifluoromethyl)phenyl)cyclopropane-1-carboxamide], the results for the half-inhibitory concentration (IC50) on human NLRP3 [1] (setting [4]) and on human NLRP3 [3] (setting [7]) were less than 1000 nM and 2000 to 3000 nM, respectively.
